Counter-ions that a name gives are not always drawn.
Legend:
[1] = tested on: panel of 140 cell lines grown in matrigel; experiment: cells; details: read-out: growth effects in panel of 140 cell lines grown in matrigel (none observed up to)
[2] = tested on: KYSE-150; experiment: Cell proliferation, KYSE-150; format: cell-based; details: Homo sapiens, read-out: Cellular Proliferation IC50
Description: Cell lines used in these experiments were obtained from the following sources and were cultured according to conditions specified by the respective cell banks. […] The cell lines listed above were tested for mycoplasma and were negative. Cells were authenticated by STR method or vendor protocols. All 313 cell lines in the CRIPSR pooled screen were purchased from commercial vendors and were STR authenticated and mycoplasma negative. A broad panel of cancer cell lines was screened in the Eurofins Oncopanel. All cells in this panel were mycoplasma negative and STR verified.
Thus, 5 compounds representing 4 distinct pharmacophore series of SMYD2 inhibitors are now available for testing the dependence of cancer lines on SMYD2 activity. […] In stark contrast, however, no correlation is seen between the potency for BTF3 methylation inhibition and anti-proliferative activity among these compounds (Fig 3B).

[3] = target: SMYD2 (Homo sapiens, UniProt Q9NRG4); experiment: SPR binding assay EPZ033294/SMYD2 (SensiQ); parameters: Full length FLAG-SMYD2 and C-terminally Avi-tagged full length SMYD2 (SMYD2-Avi) were cloned into pFastbac vectors; FLAG (N); His tag with TEV cleavage site (N, cleaved yes); made in house; host or cells: Sf9 insect cells (baculovirus); details: 15°C, 10 µM SAM in running buffer; read-out: dissociation constant (KD) by SPR
Chain of SMYD2 (Q9NRG4 whole entry): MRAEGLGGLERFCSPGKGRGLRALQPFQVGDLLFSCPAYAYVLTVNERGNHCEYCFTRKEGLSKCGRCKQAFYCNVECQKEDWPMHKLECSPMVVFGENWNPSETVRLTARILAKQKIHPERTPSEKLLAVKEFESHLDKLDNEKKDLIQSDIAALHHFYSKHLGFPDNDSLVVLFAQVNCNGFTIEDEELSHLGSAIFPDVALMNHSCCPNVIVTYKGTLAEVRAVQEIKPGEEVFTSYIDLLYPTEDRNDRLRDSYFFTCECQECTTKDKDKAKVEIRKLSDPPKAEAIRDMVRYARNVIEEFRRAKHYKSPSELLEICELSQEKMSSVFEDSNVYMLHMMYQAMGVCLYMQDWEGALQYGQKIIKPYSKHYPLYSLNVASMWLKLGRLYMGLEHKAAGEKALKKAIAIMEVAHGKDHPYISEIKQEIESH
Description: The running buffer contained 25 mM Tris-HCl pH 8.0, 150 mM NaCl, 5 mM DTT, 10 µM ZnCl2, 0.05% Tween-20, 10 µM SAM, and 2% DMSO. Avi-tagged biotinylated SMYD2 was immobilized on a neutravidin-coupled BioCap chip up to 6000 RU. Streptavidin on the reference cell was blocked with biocytin. […] Dissociation time was 1000 sec. Analysis of double-referenced data was performed using the 1:1 binding model in QDAT data analysis tool (SensiQ Technologies Inc.).

SMILES	IC50 [1]	IC50 [2]	Kd [3]
NC1CCC(S(=O)(=O)N2C3CCC2CC(NC(=O)c2cc(C4CC4)on2)C3)CC1 [EPZ028862, N-((1R,3R,5S)-8-((1r,4R)-4-aminocyclohexylsulfonyl)-8-aza-bicyclo[3.2.1]octan-3-yl)-5-cyclopropylisoxazole-3-carboxamide hydrochloride]	> 25 µM		
O=C(NC1CN(Cc2cnn(Cc3ccc(Cl)cc3)c2)C1)c1cn(C2CC2)nn1 [EPZ033294]		> 40 µM	0.005 µM
